The nature of series [1]: Functional stability of DPPIV inhibitors in the reaction medium (buffer). To be noted: 50 mM TRIS buffer pH 8.3, 37° C. It is filed as physicochemical. On the procedure:
(§1) To determine the functional stability of the inhibitors in the reaction medium, a 10 mM stock solution in DMSO was diluted 50-fold in 50 mM TRIS buffer pH 8.3 and incubated at 37° C. To determine the functional stability in plasma, a 50 mM stock solution in DMSO was diluted 50-fold in fresh or freshly frozen citrated plasma from a healthy donor and incubated at 37° C. At specific time intervals an aliquot was withdrawn, added to an equal volume of DPPIV diluted in buffer or to an equal volume of plasma and the kinetics of inactivation were determined as described under b). The reduction in observed pseudo-first order rate constant is a measure for the amount of functional inhibitor lost during the incubation and allowed to estimate the half-life of the inhibitors in buffer and plasma. The following table lists the results.

Series [2] in a line: Functional stability of DPPIV inhibitors in human citrated plasma. It is filed as in vitro ADME. To be noted: 37° C. On the procedure:
as §1

A short description of series [3]: In vivo testing in rabbits, single intravenous injection. As to the method:
In order to test the effect of the inhibitors in vivo rabbits were injected with the inhibitor and their DPPIV activity was tested using Gly-Pro-4-Methoxy-2-naphthylamide as the substrate.
4 Rabbits received a single 5 ml intravenous-(ear vein) injection of physiological saline cobtaining 0 (control), 1 mg, 5 mg and 10 mg AB 3, respectively. Blood samples were taken from the central ear artery 5 min before injection and at different points of time, directly after the injection, after 4 hrs and after 1, 2, 3, 6 and 13 days.
Counts of white and red blood cells and platelets, serum DPPIV activity and serum bilirubin, GOT, GPT, GT, LDH, creatinine, Na, K, CK and urea were evaluated.

Take `Cl.O=C([C@@H]1CCCN1)N1CCCC1P(=O)(Oc1ccccc1)Oc1ccccc1` (stereo partly drawn) [Pro-Pro^P -(OPh)2, Diphenyl (S,R)-1-[(S)-prolyl]pyrrolidine-2-phophonate hydrochloride]: the t1/2 in buffer in series [1] was found to be 3.5 ± 0.1 h. In addition, the t1/2 in plasma in series [2] worked out at 4.1 ± 0.3 h. Further, the “death of the animal” value in series [3] (rabbit receiving 10 mg i.v.) is reported as “died after 11 days”. Further, in series [3] (rabbit receiving 10 mg i.v., at day 6), the “biochemical and hematological parameters” value is recorded as “normal”. Besides, in series [3] (rabbits, single i.v. injection of 1 mg, 5 mg or 10 mg, up to 13 days, DPPIV enzyme activity excepted), the “cell counts (white and red blood cells, platelets) and serum biochemical parameters” value was “No differences”.

The values are drawn from patent US6090786A, “Serine proteases, their activity and their synthetic inhibitors” (priority 1994, dated 2000).
